Publication PMC10235067, “Increased renal elimination of endogenous and synthetic pyrimidine nucleosides in concentrative nucleoside transporter 1 deficient mice” (Nature Communications, 2023)
Values belong to the compound of their own block, whether it stands above or below them.

Assays:
CNT1 [1] = conditions: for Concentration in urine: Slc28a1+/+ and Slc28a1-/- mice; for Concentration in urine / concentration in urine, Slc28a1+/+ vs Slc28a1-/-: 12 h starvation; for fold increase of content in urine of Slc28a1-/- mice: Slc28a1-/- vs Slc28a1+/+, urine collected over 12 h starvation, 8-week-old mice, n = 6
Method: (§1) Linearity was established for analytes over the concentration ranges observed and the lower limit of quantification of the LC–MS/MS assay was approximately 0.1 ng/ml for each analyte (Fig. S2).
(§2) Standard solutions of all nucleotide targets were serially diluted to generate calibration solutions at concentrations of 0.0, 0.0001, 0.001, 0.01, 0.1, 1.0, and 10 µg/ml. Urine samples were prepared by adding 20 µL of urine solution to 80 µL of 50:50 H2O:MeOH containing internal standard, vortexing and centrifuging at 20,000 × g; then, 50 µL aliquots were placed into glass vials, dried in a SpeedVac and reconstituted in 5% MeOH with 0.1% formic acid for injection.
(§3) Samples were quantified using a heated electrospray ionization source (HESI) on a Thermo Scientific TQS Quantiva triple quadrupole mass spectrometer, and separation was achieved using a Thermo Scientific Ultimate 3000 HPLC equipped with an Agilent 120 SB-C18 reversed-phase column (2 × 100 mm, 2.7 µm particle size) maintained at 40 °C. […] For all experiments, the capillary voltage was set to 4.5 kV with a capillary temperature of 350 °C, a vaporizer temperature of 100 °C, a sheath gas flow of 12, an auxiliary gas flow of 13, and a 1.6 sweep gas. For selected reaction monitoring (SRM) mode, Q1 and Q3 were set to 0.7 full width at half maximum (FWHM) resolution, a cycle time of 0.8 s, and a CID gas pressure of 1.5 mTorr.

[2] = Gemcitabine urine pharmacokinetics (renal excretion) in Slc28a1+/+ and Slc28a1-/- mice; conditions: WT and KO mouse urine pooled 10 min to 2 h after dFdC 50 mg/kg i.v.
Method: THU was added to the mouse urine samples upon collection and frozen until analysis. […] Five microliters of the diluted samples were transferred to a 96-well autosampler plate then 10 µL of internal standard mixture was added and mixed. […] The plate was then transferred to the 4 °C autosampler for analysis.
The chromatographic separation was performed on a Thermo Accucore aQ 2.6 µm, 100 ×2.1 mm column at 30 °C using a gradient with a 10 µL injection volume. The mobiles phases were 1 mM ammonium acetate in deionized water pH 6.8 and acetonitrile. The total run time was 5.5 min. […] The LC–MS/MS analysis was conducted on a Thermo Vanquish UHPLC with a TSQ Quantiva mass spectrometer equipped with an electrospray ionization source.

[3] = Gemcitabine plasma pharmacokinetics in Slc28a1+/+ and Slc28a1-/- mice; conditions: Slc28a1+/+ and Slc28a1-/- mice; single i.v. dFdC 50 mg/kg
Method: To collect blood, a 5 mm lancet was used to apply pressure to the submandibular vein and release blood flow. For retro-orbital collection, mice were anesthetized with 3% isoflurane in oxygen, and the blood was collected directly into heparinized capillary tubes by applying slight pressure to the medial canthus of the eye. Cardiac puncture was performed as the final collection method by first euthanizing the mice in a CO2 chamber and immediately performing posterior cardiac puncture by inserting a 27 G needle with a 1 ml syringe attachment into the heart. Once blood collection was completed, gentle pressure was applied to the blood collection area using gauze to stop the bleeding. Thirty microliters of blood was collected into heparinized capillary tubes at each time point, transferred into prelabeled 0.5 ml microcentrifuge tubes containing THU (10 µg/ml; final concentration), and immediately processed and snap-frozen following procedures outlined in the “Gemcitabine plasma pharmacokinetics” methods section.
Gemcitabine and dFdU plasma concentrations were measured using a modified version of our previously published UHPLC–MS/MS method for nucleosides[74] […] Noncompartmental pharmacokinetic parameters (Cmax, Tmax, AUC, CL, T1/2, etc.) were calculated using WinNonlin 6.2 software (Pharsight; Mountain View, CA). […] The Cmax and Tmax were obtained from the concentration-time curve. The AUC was calculated according to the linear trapezoidal rule up to the last time point with a measurable concentration of the analyte of interest. Significant differences between Slc28a1^+/+ and Slc28a1^−/− mouse pharmacokinetic parameters (p < 0.05) were evaluated with an unpaired two-sided Student’s t-test.
The resulting supernatant was evaporated to dryness in a SpeedVac, and the remaining residue was reconstituted in mobile phase A for subsequent analysis. […] Subsequent processing was identical to that for the plasma and urine samples.
Briefly, the analysis was performed on an Imtakt Schzero SM C18 column, 2.1 × 100 mm, 3.0 µm particle size. The eluents used consisted of mobile phase A consisting of 50 mM ammonium formate:50 mM ammonium hydroxide (9:1, v/v) (pH = 8.6) and mobile phase B consisting of 50 mM ammonium formate:50 mM ammonium hydroxide (9:1, v/v):ACN (80:20, v/v) (pH = 8.6). […] The injection volume was 10 μL, and the autosampler temperature was set at 4 °C throughout the analysis.
The Waters Triple Quadrupole Mass Spectrometer with an ESI source was operated in negative and positive ion mode at a spray voltage of 2.5 kV, capillary temperature of 150 °C, and vaporizer temperature of 250 °C. Compound optimization was performed manually using the MassLynx 4.1 Software AutoTune Wizard (Waters, Milford, MA) by infusion into the mass spectrometer using a T-connector. […] Analyze concentrations were determined and analyzed using MassLynx Mass Spectrometry Software (Waters; Milford, MA).

[4] = system: dihydropyrimidine dehydrogenase (DPD); conditions: cited from earlier work
CNT1 [5] = target: T1, CNT1 (Mus musculus, UniProt E9PXX9); conditions: Slc28a1+/+ (CNT1 WT) mice, urine, one value per animal; Figure 2D-F source data
T1 sequence (E9PXX9 1-648): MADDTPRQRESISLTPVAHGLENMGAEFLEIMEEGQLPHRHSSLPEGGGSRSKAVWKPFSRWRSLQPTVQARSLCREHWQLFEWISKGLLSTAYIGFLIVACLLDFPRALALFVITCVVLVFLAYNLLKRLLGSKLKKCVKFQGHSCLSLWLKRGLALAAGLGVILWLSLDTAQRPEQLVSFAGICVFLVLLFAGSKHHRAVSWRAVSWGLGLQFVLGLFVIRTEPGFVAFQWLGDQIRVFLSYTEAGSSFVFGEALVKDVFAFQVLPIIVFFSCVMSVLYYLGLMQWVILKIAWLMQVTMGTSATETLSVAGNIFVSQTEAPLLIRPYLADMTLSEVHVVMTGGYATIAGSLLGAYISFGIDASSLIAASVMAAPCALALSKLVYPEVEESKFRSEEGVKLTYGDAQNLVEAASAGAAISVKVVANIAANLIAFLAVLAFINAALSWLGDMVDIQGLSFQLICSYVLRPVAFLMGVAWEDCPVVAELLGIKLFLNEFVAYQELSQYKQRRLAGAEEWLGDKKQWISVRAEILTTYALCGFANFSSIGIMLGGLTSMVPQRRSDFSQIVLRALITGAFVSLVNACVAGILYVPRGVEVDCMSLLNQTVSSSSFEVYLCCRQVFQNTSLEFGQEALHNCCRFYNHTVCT
Method: as §1, §2, §3

- Concentration in urine (CNT1 [1]): undetectable
Structure (SMILES): Nc1nc2c(ncn2[C@H]2C[C@H](O)[C@@H](CO)O2)c(=O)[nH]1 [deoxyguanosine]

- concentration in urine, Slc28a1+/+ vs Slc28a1-/- (CNT1 [1]): not significantly different
Structure (SMILES): Nc1ncnc2c1ncn2[C@@H]1O[C@H](CO)[C@@H](O)[C@H]1O [Adenosine]

- fold increase of content in urine of Slc28a1-/- mice (CNT1 [1]): 7.5 fold
Structure (SMILES): Cc1cn([C@H]2C[C@H](O)[C@@H](CO)O2)c(=O)[nH]c1=O [Thymidine]

Structure (SMILES): Nc1ccn([C@@H]2O[C@H](COP(=O)(O)OP(=O)(O)OP(=O)(O)O)[C@@H](O)C2(F)F)c(=O)n1 [dFdC-TP, dFdC triphosphate]
- level in urine after dFdC dosing [2]: below the limits of quantification
- plasma level after dFdC dosing [3]: did not detect appreciable quantities

- concentration in urine, Slc28a1+/+ vs Slc28a1-/- (CNT1 [1]): not significantly different
Structure (SMILES): Nc1nc2c(ncn2[C@@H]2O[C@H](CO)[C@@H](O)[C@H]2O)c(=O)[nH]1 [Guanosine]

Structure (SMILES): O=c1[nH]cc(F)c(=O)[nH]1 [5’-fluorouracil]
- share of elimination mediated by DPD through hepatic metabolism [4]: 80%

- Urine level of nucleoside / deoxynucleoside / nucleobase, CNT1 WT Urine (individual mice) (CNT1 [5]): 0
- Concentration in urine (CNT1 [1]): undetectable
Structure (SMILES): Nc1ncnc2c1ncn2[C@H]1C[C@H](O)[C@@H](CO)O1 [deoxyadenosine]

- fold increase of content in urine of Slc28a1-/- mice (CNT1 [1]): 5.9 fold
Structure (SMILES): O=c1ccn([C@@H]2O[C@H](CO)[C@@H](O)[C@H]2O)c(=O)[nH]1 [uridine]

- fold increase of content in urine of Slc28a1-/- mice (CNT1 [1]): 4.6 fold
Structure (SMILES): O=c1cc[nH]c(=O)[nH]1 [Uracil]

- fold increase of content in urine of Slc28a1-/- mice (CNT1 [1]): 52.9 fold
Structure (SMILES): Nc1ccn([C@@H]2O[C@H](CO)[C@@H](O)[C@H]2O)c(=O)n1 [cytidine]

- fold increase of content in urine of Slc28a1-/- mice (CNT1 [1]): 44.8 fold
Structure (SMILES): Nc1ccn([C@H]2C[C@H](O)[C@@H](CO)O2)c(=O)n1 [Deoxycytidine]

- fold increase of content in urine of Slc28a1-/- mice (CNT1 [1]): 2.4 fold
Structure (SMILES): O=c1ccn([C@H]2C[C@H](O)[C@@H](CO)O2)c(=O)[nH]1 [deoxyuridine]
